Experimental data reported in patent US9505721B2, “Aromatic imide compound and method for producing same” (AZ ELECTRONIC MATERIALS (LUXEMBOURG) S.A.R.L., priority 2012, dated 2016).

How the values were obtained:
[1] = Ultraviolet and visible absorption spectrum (absorbance at i-, h- and g-line); assay type: physicochemical; details: measurement solvent dichloromethane
Method: [3] Ultraviolet and visible absorption spectrum Types of machines: Varian Cary4000 manufactured by Agilent Technologies, Inc.
(§1) Measurement solvent: Dichloromethane
Absorption spectrums of compounds obtained in Examples 1 to 5 were measured. Furthermore, N-trifluoromethanesulfonyloxy-1,8-naphthalimide was used as a comparative example.

[2] = Evaluation test of acid generating ability (UV irradiation, BCG pH probe); assay type: physicochemical; details: solution in dichloromethane with BCG, before irradiation
Method: It was measured and evaluated by devices and a method (Evaluation test of acid generating ability) described below whether compounds obtained in Examples above acted as an acid generator under photoirradiation. The actual evaluation was conducted by use of Compound 1H. Devices used in evaluation are as follows.
as §1
(1) […] Compound 1H solution in dichloromethane was prepared and a few drops of 50% bromocresolgreen (BCG) solution in ethanol were added in this solution as pH probe.
(2) The absorption spectrum of the solution was measured and it was checked that there are maximum absorption spectrums of Compound 1H in 300-400 nm and BOG in 630 nm. The color of this solution was dark blue.
(3) The absorption spectrum of the solution was measured every 2 minutes while irradiating the solution described (2) above by UV lamp. At this time, the progress of attenuation concerning absorption maximum of BCG spectrum and the discoloration situation of dark blue color in the solution due to the pH decline of the system by generation of acids were observed by eyes.

Row | Compound | absorbance 365 nm (i-line) [1] | absorbance 405 nm (h-line) [1] | absorbance 436 nm (g-line) [1] | maximum absorption spectrum [2]
1 | O=C1c2cccc3cccc(c23)C(=O)N1OS(=O)(=O)C(F)(F)F [Comparative example, N-trifluoromethanesulfonyloxy-1,8-naphthalimide, reference compound] | 0.02925 | 0.005575 | 0.004642 | 
2 | O=C1c2cccc3c(C#Cc4ccccc4)ccc(c23)C(=O)N1OS(=O)(=O)C(F)(F)F [Compound 1H, N-trifluoromethanesulfonyloxy-4-phenylethynyl-1,8-naphthalimide] | 0.4162 | 0.5112 | 0.01499 | 300-400 nm
